{"source": "patent US11345700B2", "about": "“Methods of preparing inhibitors of influenza viruses replication” (priority 2013, dated 2022)", "key": {"[1]": {"test_system": "influenza A/Wisconsin/67/2005 (H3N2) challenge strain virus", "test": "Human live attenuated influenza challenge: nasal viral shedding by TCID50 cell culture assay", "assay_type": "in vivo, healthy volunteers (humans)", "protocol": "Subjects underwent thrice daily nasal swabs, and kept thrice daily score cards for clinical symptoms from Days 1-7, and were discharged from the facility on Day 8, with safety follow-up at approximately Day 28. Nasal swabs were assayed for influenza virus in cell culture (primary analysis) and by qRT-PCR (secondary analysis).\nAdditional FA group analyses were performed (data not shown)."}, "[2]": {"test_system": "Influenza A/Vietnam/1203/2004 (H5N1) virus", "assay_type": "in vivo, BALB/c mice", "conditions": "10 mg/kg p.o. twice a day for 10 days; Treatment (+48 h)"}, "[3]": {"test_system": "Influenza A/Victoria/3/75 (H3N2) virus", "assay_type": "in vivo, BALB/c mice"}, "influenza B virus": {"test_system": "influenza B virus", "test": "Antiviral activity in MDCK cells measured by ATP levels (CellTiter-Glo), influenza B", "assay_type": "cell-based", "conditions": "read-out: Cell Protection Assay EC50 ± SD"}, "influenza virus": {"test_system": "influenza virus", "assay_type": "in vivo, mice"}, "influenza A virus": {"test_system": "influenza A virus", "test": "Mouse influenza A model: prophylactic dose response and delayed treatment, survival and body weight loss", "assay_type": "in vivo, mice", "from_the_text": "The prophylactic dose response of Compound (1) was investigated in the mouse influenza A model. […] All of the mice that received vehicle alone succumbed to the infection by study day 9 and had lost, on average, ˜32% of their body weight (BW).\nAll vehicle controls succumbed to disease by study days 8 or 9."}, "[4]": {"conditions": "Pooled Compound (1) dose groups (N = 52)"}, "[5]": {"conditions": "1 mg/kg p.o. twice a day for 10 days starting 2 hours prior to virus exposure"}, "[6]": {"conditions": "3 mg/kg p.o. twice a day for 10 days starting 2 hours prior to virus exposure"}, "[7]": {"conditions": "10 mg/kg p.o. twice a day for 10 days starting 2 hours prior to virus exposure"}, "[8]": {"conditions": "treatment start +24 h relative to infection, 1 mg/kg BID"}, "[9]": {"conditions": "treatment start +24 h relative to infection, 3 mg/kg BID"}, "[10]": {"conditions": "treatment start +24 h relative to infection, 10 mg/kg BID"}, "[11]": {"conditions": "treatment start +48 h relative to infection, 1 mg/kg BID"}, "[12]": {"conditions": "treatment start +48 h relative to infection, 3 mg/kg BID"}, "[13]": {"conditions": "treatment start +48 h relative to infection, 10 mg/kg BID"}, "[14]": {"conditions": "treatment start +72 h relative to infection, 1 mg/kg BID"}, "[15]": {"conditions": "treatment start +72 h relative to infection, 3 mg/kg BID"}, "[16]": {"conditions": "treatment start +72 h relative to infection, 10 mg/kg BID"}, "[17]": {"conditions": "treatment start +96 h relative to infection, 3 mg/kg BID"}, "[18]": {"conditions": "treatment start +96 h relative to infection, 10 mg/kg BID"}, "[19]": {"conditions": "treatment start +120 h relative to infection, 3 mg/kg BID"}, "[20]": {"conditions": "treatment start +120 h relative to infection, 10 mg/kg BID"}, "[21]": {"conditions": "treatment start −2 h relative to infection, 0.1 mg/kg BID"}, "[22]": {"conditions": "treatment start −2 h relative to infection, 0.3 mg/kg BID"}, "[23]": {"conditions": "treatment start −2 h relative to infection, 1 mg/kg BID"}, "[24]": {"conditions": "treatment start −2 h relative to infection, 3 mg/kg BID"}, "[25]": {"conditions": "treatment start −2 h relative to infection, 10 mg/kg BID"}}, "note": "pEC50: −log10 of the molar value. Where two headings read alike, the source gives them in different places.", "data": [{"smiles": "O=C(O)[C@H]1[C@H]2CC[C@H](CC2)[C@@H]1Nc1nc(-c2c[nH]c3ncc(F)cc23)ncc1F", "note": "[Compound (1)]", "values": [{"measurement": "Viral Shedding by Tissue Culture AUC, median", "setting": "[1]; 100 mg QD (N = 12)", "value": 1.25, "unit": "log10 TCID50 mL*Day"}, {"measurement": "Viral Shedding by Tissue Culture Duration, median", "setting": "[1]; 100 mg QD (N = 12)", "value": 0.96, "unit": "days"}, {"measurement": "Viral Shedding by Tissue Culture Peak, mean", "setting": "[1]; 100 mg QD (N = 12)", "value": 2.09, "unit": "log10 TCID50/mL"}, {"measurement": "Viral Shedding by Tissue Culture AUC, median", "setting": "[1]; 400 mg QD (N = 12)", "value": 0.70, "unit": "log10 TCID50 mL*Day"}, {"measurement": "Viral Shedding by Tissue Culture Duration, median", "setting": "[1]; 400 mg QD (N = 12)", "value": 1.60, "unit": "days"}, {"measurement": "Viral Shedding by Tissue Culture Peak, mean", "setting": "[1]; 400 mg QD (N = 12)", "value": 1.73, "unit": "log10 TCID50/mL"}, {"measurement": "Viral Shedding by Tissue Culture AUC, median", "setting": "[1]; 900/600 mg (N = 14)", "value": 3.20, "unit": "log10 TCID50 mL*Day"}, {"measurement": "Viral Shedding by Tissue Culture Duration, median", "setting": "[1]; 900/600 mg (N = 14)", "value": 2.71, "unit": "days"}, {"measurement": "Viral Shedding by Tissue Culture Peak, mean", "setting": "[1]; 900/600 mg (N = 14)", "value": 2.68, "unit": "log10 TCID50/mL"}, {"measurement": "Viral Shedding by Tissue Culture AUC, median", "setting": "[1]; 1200/600 mg (N = 14)", "value": 0.35, "unit": "log10 TCID50 mL*Day"}, {"measurement": "Viral Shedding by Tissue Culture Duration, median", "setting": "[1]; 1200/600 mg (N = 14)", "value": 0.00, "unit": "days"}, {"measurement": "Viral Shedding by Tissue Culture Peak, mean", "setting": "[1]; 1200/600 mg (N = 14)", "value": 1.00, "unit": "log10 TCID50/mL"}, {"measurement": "Viral Shedding by Tissue Culture AUC, median", "setting": "[1]; [4]", "value": 0.65, "unit": "log10 TCID50 mL*Day"}, {"measurement": "Viral Shedding by Tissue Culture Duration, median", "setting": "[1]; [4]", "value": 0.71, "unit": "days"}, {"measurement": "Viral Shedding by Tissue Culture Peak, mean", "setting": "[1]; [4]", "value": 1.87, "unit": "log10 TCID50/mL"}, {"measurement": "MDD ± SD (mean day of death of mice that died on or before day 21)", "setting": "[2]", "value": ">21"}, {"measurement": "Mean Lung Parameters (Day 6): Virus Titer", "setting": "[2]", "value": "3.75 ± 0.94", "unit": "Log10 CCID50/g"}, {"measurement": "Survivors/Total", "setting": "[2]", "value": "10/10"}, {"measurement": "MDD ± SD (mean day of death of mice that died on or before day 21)", "setting": "[3]; [5]", "value": 9.8}, {"measurement": "Mean Lung Parameters (Day 6): Score (hemorrhage score 0-4)", "setting": "[3]; [5]", "value": 3.2}, {"measurement": "Mean Lung Parameters (Day 6): Virus Titer", "setting": "[3]; [5]", "value": 7.3, "unit": "Log10 CCID50/g"}, {"measurement": "Mean Lung Parameters (Day 6): Weight", "setting": "[3]; [5]", "value": 274, "unit": "mg"}, {"measurement": "Survivors/Total", "setting": "[3]; [5]", "value": "4/10"}, {"measurement": "Mean Lung Parameters (Day 6): Score (hemorrhage score 0-4)", "setting": "[3]; [6]", "value": 3.3}, {"measurement": "Mean Lung Parameters (Day 6): Virus Titer", "setting": "[3]; [6]", "value": 7.2, "unit": "Log10 CCID50/g"}, {"measurement": "Mean Lung Parameters (Day 6): Weight", "setting": "[3]; [6]", "value": 260, "unit": "mg"}, {"measurement": "Mean Lung Parameters (Day 6): Score (hemorrhage score 0-4)", "setting": "[3]; [7]", "value": 0.1}, {"measurement": "Mean Lung Parameters (Day 6): Virus Titer", "setting": "[3]; [7]", "value": 6.1, "unit": "Log10 CCID50/g"}, {"measurement": "Mean Lung Parameters (Day 6): Weight", "setting": "[3]; [7]", "value": 164, "unit": "mg"}, {"measurement": "pEC50", "setting": "influenza B virus; B/Russia/69", "value": "< 8.00"}, {"measurement": "pEC50", "setting": "influenza B virus; Influenza B virus, MDCK, B/Lee/40", "value": "< 8.00"}, {"measurement": "half maximal reduction in lung titers", "setting": "influenza virus; mice infected 24 h, then dosed for 24 h (q6 h, q12 h, q24 h)", "value": "2-3 log"}, {"measurement": "serum-shifted EC99", "setting": "influenza virus; plasma concentration near which half maximal reduction in lung titers occurs", "value": 100, "unit": "ng/mL"}, {"measurement": "survival (mice)", "setting": "influenza A virus; 0.3 mg/kg BID for 10 days, initiated 2 h prior to infection", "value": "2/8"}, {"measurement": "Percent Body Weight Loss on Study Day 8", "setting": "influenza A virus; [8]", "value": "−23.4", "unit": "%"}, {"measurement": "Percent Survival", "setting": "influenza A virus; [8]", "value": 100, "unit": "%"}, {"measurement": "Percent Body Weight Loss on Study Day 8", "setting": "influenza A virus; [9]", "value": "−14.2", "unit": "%"}, {"measurement": "Percent Survival", "setting": "influenza A virus; [9]", "value": 100, "unit": "%"}, {"measurement": "Percent Body Weight Loss on Study Day 8", "setting": "influenza A virus; [10]", "value": "−6.2", "unit": "%"}, {"measurement": "Percent Survival", "setting": "influenza A virus; [10]", "value": 100, "unit": "%"}, {"measurement": "Percent Body Weight Loss on Study Day 8", "setting": "influenza A virus; [11]", "value": "−22.5", "unit": "%"}, {"measurement": "Percent Survival", "setting": "influenza A virus; [11]", "value": 100, "unit": "%"}, {"measurement": "Percent Body Weight Loss on Study Day 8", "setting": "influenza A virus; [12]", "value": "−10.9", "unit": "%"}, {"measurement": "Percent Survival", "setting": "influenza A virus; [12]", "value": 100, "unit": "%"}, {"measurement": "Percent Body Weight Loss on Study Day 8", "setting": "influenza A virus; [13]", "value": "−7.1", "unit": "%"}, {"measurement": "Percent Survival", "setting": "influenza A virus; [13]", "value": 100, "unit": "%"}, {"measurement": "Percent Body Weight Loss on Study Day 8", "setting": "influenza A virus; [14]", "value": "−29.4", "unit": "%"}, {"measurement": "Percent Survival", "setting": "influenza A virus; [14]", "value": 100, "unit": "%"}, {"measurement": "Percent Body Weight Loss on Study Day 8", "setting": "influenza A virus; [15]", "value": "−23.2", "unit": "%"}, {"measurement": "Percent Survival", "setting": "influenza A virus; [15]", "value": 100, "unit": "%"}, {"measurement": "Percent Body Weight Loss on Study Day 8", "setting": "influenza A virus; [16]", "value": "−17.4", "unit": "%"}, {"measurement": "Percent Survival", "setting": "influenza A virus; [16]", "value": 100, "unit": "%"}, {"measurement": "Percent Body Weight Loss on Study Day 8", "setting": "influenza A virus; [17]", "value": "−27.3", "unit": "%"}, {"measurement": "Percent Survival", "setting": "influenza A virus; [17]", "value": 100, "unit": "%"}, {"measurement": "Percent Body Weight Loss on Study Day 8", "setting": "influenza A virus; [18]", "value": "−25.5", "unit": "%"}, {"measurement": "Percent Survival", "setting": "influenza A virus; [18]", "value": 100, "unit": "%"}, {"measurement": "Percent Body Weight Loss on Study Day 8", "setting": "influenza A virus; [19]", "value": "−32.6", "unit": "%"}, {"measurement": "Percent Survival", "setting": "influenza A virus; [19]", "value": 12.5, "unit": "%"}, {"measurement": "Percent Body Weight Loss on Study Day 8", "setting": "influenza A virus; [20]", "value": "−34.4", "unit": "%"}, {"measurement": "Percent Survival", "setting": "influenza A virus; [20]", "value": 37.5, "unit": "%"}, {"measurement": "Percent Body Weight Loss on Study Day 8", "setting": "influenza A virus; [21]", "value": "−31.9", "unit": "%"}, {"measurement": "Percent Survival", "setting": "influenza A virus; [21]", "value": 0, "unit": "%"}, {"measurement": "Percent Body Weight Loss on Study Day 8", "setting": "influenza A virus; [22]", "value": "−30.4", "unit": "%"}, {"measurement": "Percent Survival", "setting": "influenza A virus; [22]", "value": 25, "unit": "%"}, {"measurement": "Percent Body Weight Loss on Study Day 8", "setting": "influenza A virus; [23]", "value": "−16.8", "unit": "%"}, {"measurement": "Percent Survival", "setting": "influenza A virus; [23]", "value": 100, "unit": "%"}, {"measurement": "Percent Body Weight Loss on Study Day 8", "setting": "influenza A virus; [24]", "value": "−8.7", "unit": "%"}, {"measurement": "Percent Survival", "setting": "influenza A virus; [24]", "value": 100, "unit": "%"}, {"measurement": "Percent Body Weight Loss on Study Day 8", "setting": "influenza A virus; [25]", "value": "−2.8", "unit": "%"}, {"measurement": "Percent Survival", "setting": "influenza A virus; [25]", "value": 100, "unit": "%"}]}]}
